Assays:
Type in all cases: biochemical
Settings in all cases: luminometer
TNIK = molecular target: T1, TNIK (Homo sapiens, UniProt Q9UKE5); test: TNIK inhibition, ADP-Glo Kinase Assay
T1 construct: purchased Promega V4158
Description: Inhibition activities on TNIK, IKKε and TBK1 were evaluated using the compounds of Examples 1 to 254.
The inhibition activities on TNIK, IKKε and TBK1 were measured by a luminometer, TNIK/IKKε/TBK1 Kinase Enzyme System (Promega, Ca# V4158; Invitrogen, PR8031B, Promega, Ca# V3991) and ADP-Glo Kinase Assay using ADP-Glo™ Kinase Analysis Kit (Promega, Ca# V9101) and a kinase reaction buffer [40 mM Tris(pH 7.5), 20 mM MgCl2, 0.1 mg/mL BSA] in accordance with the manufacturer's protocol.

TBK1 = molecular target: T2, TBK1 (Homo sapiens, UniProt Q9UHD2); test: TBK1 inhibition, ADP-Glo Kinase Assay
T2 construct: purchased Promega V3991
T2 sequence (Q9UHD2 1-729): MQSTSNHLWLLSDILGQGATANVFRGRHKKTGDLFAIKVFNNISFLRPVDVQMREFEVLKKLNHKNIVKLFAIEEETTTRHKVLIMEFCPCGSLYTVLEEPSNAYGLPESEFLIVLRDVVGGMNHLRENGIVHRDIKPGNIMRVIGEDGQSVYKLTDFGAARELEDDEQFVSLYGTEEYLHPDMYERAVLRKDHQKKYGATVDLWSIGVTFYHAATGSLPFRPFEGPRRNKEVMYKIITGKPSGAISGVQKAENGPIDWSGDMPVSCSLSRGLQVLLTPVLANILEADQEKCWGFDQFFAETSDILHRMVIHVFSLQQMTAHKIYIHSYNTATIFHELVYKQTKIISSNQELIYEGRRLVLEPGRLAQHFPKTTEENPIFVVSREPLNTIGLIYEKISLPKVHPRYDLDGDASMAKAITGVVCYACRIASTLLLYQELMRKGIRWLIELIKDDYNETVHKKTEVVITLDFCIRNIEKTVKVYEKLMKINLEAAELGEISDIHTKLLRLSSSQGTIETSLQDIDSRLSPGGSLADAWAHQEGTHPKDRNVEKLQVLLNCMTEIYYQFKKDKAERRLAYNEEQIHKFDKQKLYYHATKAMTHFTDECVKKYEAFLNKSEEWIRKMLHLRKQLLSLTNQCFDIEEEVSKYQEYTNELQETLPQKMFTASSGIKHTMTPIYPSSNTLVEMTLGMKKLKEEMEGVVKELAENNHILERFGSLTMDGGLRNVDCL
Summary of the method: (§1)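 ADP-Glo luminescence reported ADP produced by each kinase, following the kit protocol. Reactions used commercial kinase enzyme systems in buffer of 40 mM Tris (pH 7.5), 20 mM MgCl2 and 0.1 mg/mL BSA.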

IKKε = molecular target: T3, IKKε (Homo sapiens, UniProt Q14164); test: IKKε inhibition, ADP-Glo Kinase Assay
T3 construct: purchased Invitrogen PR8031B
T3 sequence (Q14164 1-716): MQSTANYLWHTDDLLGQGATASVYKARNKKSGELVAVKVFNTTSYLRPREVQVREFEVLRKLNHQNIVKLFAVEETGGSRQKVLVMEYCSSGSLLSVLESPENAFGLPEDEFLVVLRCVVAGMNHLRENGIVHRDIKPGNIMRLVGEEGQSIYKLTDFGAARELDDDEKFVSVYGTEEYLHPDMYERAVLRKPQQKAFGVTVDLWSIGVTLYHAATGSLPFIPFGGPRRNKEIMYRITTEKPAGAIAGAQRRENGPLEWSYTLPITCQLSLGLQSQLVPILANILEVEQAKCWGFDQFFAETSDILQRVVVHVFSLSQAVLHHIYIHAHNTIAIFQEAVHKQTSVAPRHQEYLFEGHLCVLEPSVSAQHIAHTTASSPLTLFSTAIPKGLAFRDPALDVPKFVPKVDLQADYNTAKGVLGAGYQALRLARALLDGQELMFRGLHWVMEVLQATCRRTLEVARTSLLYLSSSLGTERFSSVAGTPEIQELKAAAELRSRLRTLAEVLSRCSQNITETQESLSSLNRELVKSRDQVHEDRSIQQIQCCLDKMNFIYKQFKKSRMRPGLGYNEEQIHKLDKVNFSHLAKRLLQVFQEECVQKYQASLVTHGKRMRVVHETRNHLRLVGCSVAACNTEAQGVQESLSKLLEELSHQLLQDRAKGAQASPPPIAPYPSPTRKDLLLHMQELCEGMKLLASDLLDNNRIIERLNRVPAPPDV
Summary of the method: as §1

T1 sequence (Q9UKE5 1-367 limits assumed): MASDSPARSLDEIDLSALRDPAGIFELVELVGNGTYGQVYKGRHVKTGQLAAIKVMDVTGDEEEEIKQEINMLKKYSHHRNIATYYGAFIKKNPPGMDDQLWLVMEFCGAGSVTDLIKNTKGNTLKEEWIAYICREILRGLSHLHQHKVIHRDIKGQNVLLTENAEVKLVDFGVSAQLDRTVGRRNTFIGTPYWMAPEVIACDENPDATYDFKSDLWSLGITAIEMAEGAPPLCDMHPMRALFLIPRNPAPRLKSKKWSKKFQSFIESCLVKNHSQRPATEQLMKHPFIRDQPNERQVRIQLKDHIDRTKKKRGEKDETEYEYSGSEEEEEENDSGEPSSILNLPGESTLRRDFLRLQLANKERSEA

Cc1cnc(-c2cc3[nH]nc(NC(=O)c4ccc(NCCN5CCCCC5)cc4)c3s2)o1 [Example 224, N-(5-(5-methyloxazol-2-yl)-1H-thieno[3,2-c]pyrazol-3-yl)-4-((2-(piperidin-1-yl)ethyl)amino)benzamide]
IC50 (TNIK): 0.085 µM
IC50 (TBK1): 0.12 µM
IC50 (IKKε): 0.32 µM

Cc1cnc(-c2cc3[nH]nc(NC(=O)c4ccc(N5CCN(C)CC5)cc4)c3s2)o1 [Example 225, N-(5-(5-methyloxazol-2-yl)-1H-thieno[3,2-c]pyrazol-3-yl)-4-(4-methylpiperazin-1-yl)benzamide]
IC50 (TNIK): 0.049 µM
IC50 (TBK1): 0.13 µM
IC50 (IKKε): 0.35 µM
